From US20080220103A1, “METHOD FOR TREATING/CONTROLLING/KILLING FUNGI AND BACTERIA ON LIVING ANIMALS” (priority 2005, published 2008)
Converted amounts (≈) assume the structure as drawn.

How the values were obtained:
[1] = test system: terbinafine-resistant T. rubrum; assay: MIC against terbinafine-resistant isolates; type: cell-based, Trichophyton rubrum
Experimental: Minimum Inhibitory Concentration (MIC): Minimum inhibitory concentrations of synthetic and semisynthetic and natural products against dermatophytes were determined using a modification of the Clinical Laboratory Standards Institute (CLSI, formerly National Committee of Clinical Laboratory Standards, NCCLS) M38A standard method for dermatophytes, while MIC of these agents against Candida species were determined using the CLSI M27-A2 methodology. The method used to determine the MIC against bacteria was based on the CLSI document M7-A7.
For dermatophytes, serial dilutions of terbinafine, tolnaftate were prepared in a range of 0.004-2 μg/ml, while for miconazole concentrations ranged between 0.015-8 μg/ml. Finally, for essential oils, the concentrations tested were between 0.03-16 μg/ml. The only exception was tea tree oil where dilutions were prepared in a range of 0.0078-4 μg/ml. The MIC was read at 4 days post inoculation and defined as the lowest concentration of an agent to inhibit 80% of fungal growth as compared to the growth control (Table 2).

T. rubrum = assay: Pre-treatment insole assay, combination (FIG. 10); type: cell-based, Trichophyton rubrum; settings: 0.01% synthetic agent, 3% tea tree oil, singly or combined
Experimental: Pre-treatment assays: To evaluate the ability of different agents to prevent fungal contaminations of shoes, PDA plates were prepared on which 10^4 T. mentagrophytes cells were evenly spread. Next, discs from insoles and leather were treated as follows (with either agent or control vehicle): discs were pretreated with a single spray, spraying for 15 second or 30 second. Other discs were immersed in agent or vehicle for 30 min. Following this treatment, discs were air-dried by placing them in a Petri plate for 1 min. These dried discs were then placed (drug side down) on the seeded PDA plates. Plates were then incubated for 4 days at 30° C. Following incubation, fungal growth was recorded. […] Diameter of the clearance zone (CZD) was measured. The relative activity of different agents and control were assessed. […] To determine whether using combination of synthetic compounds and essential oils will allow the use of low concentrations of synthetic drugs, we tested the ability of combination of 0.01% tolnaftate and 3% tea tree oil to prevent shoe contamination using the pre- and post-treatment insole bioassays described above.

[2] = Trichophyton rubrum, terbinafine-resistant T. rubrum, n = 11

CN(C/C=C/C#CC(C)(C)C)Cc1cccc2ccccc12 [Terbinafine, terbinafine]
MIC ([1]; Trichophyton rubrum, T. rubrum MRL 666): 16 µg/mL (≈ 54.9 µM) | MIC ([1]; Trichophyton rubrum, T. rubrum MRL 670): 16 µg/mL (≈ 54.9 µM) | MIC ([1]; Trichophyton rubrum, T. rubrum MRL 671): 4 µg/mL (≈ 13.7 µM) | MIC ([1]; Trichophyton rubrum, T. rubrum MRL 1386): 4 µg/mL (≈ 13.7 µM) | MIC ([1]; Trichophyton rubrum, T. rubrum MRL 1806): 4 µg/mL (≈ 13.7 µM) | MIC ([1]; Trichophyton rubrum, T. rubrum MRL 1807): 4 µg/mL (≈ 13.7 µM) | MIC ([1]; Trichophyton rubrum, T. rubrum MRL 1808): 16 µg/mL (≈ 54.9 µM) | MIC ([1]; Trichophyton rubrum, T. rubrum MRL 1809): 16 µg/mL (≈ 54.9 µM) | MIC ([1]; Trichophyton rubrum, T. rubrum MRL 1810): 4 µg/mL (≈ 13.7 µM) | MIC ([1]; Trichophyton rubrum, T. rubrum MRL 2499): 4 µg/mL (≈ 13.7 µM) | MIC ([1]; Trichophyton rubrum, T. rubrum MRL 2727): 2 µg/mL (≈ 6.86 µM) | MIC50 [1, 2]: 4 µg/mL (≈ 13.7 µM) | MIC90 [1, 2]: 16 µg/mL (≈ 54.9 µM) | MIC Range ([1]; terbinafine-resistant T. rubrum, n = 11): 2 to 16 µg/mL | effect of pretreatment of insoles on fungal growth (T. rubrum): did not result in any inhibition of fungal growth
